Test results taken from patent US20160024062A1, “ISOXAZOLINE DERIVATIVES FOR CONTROLLING INVERTEBRATE PESTS” (NOVARTIS TIERGESUNDHEIT AG, priority 2011, published 2016).

Assays:
[1] = system: Rhipicephalus sanquineus nymphs; assay: Activity in vivo against Rhipicephalus sanquineus nymphs on Mongolian gerbils (spray application); details: engorged nymphs counted seven days after infestation, vs placebo (Abbot's formula)
Experimental: On day 0, gerbils are treated with the test compound at a given dose by spray application. On day +1 (+2), the animals are infested with nymphs of R. sanguineus. Ticks are left on the animals until full repletion. Seven days after infestation nymphs dropped off fully engorged are collected and counted. Efficacy in killing is expressed as a tick number reduction in comparison with a placebo treated group, using the Abbot's formula.

[2] = system: Ctenocephalides felis (cat flea); assay: Activity in vivo against Ctenocephalides felis (cat flea) on Mongolian gerbils (spray application); details: live fleas counted 24 h and 48 h after infestation, vs placebo (Abbot's formula)
Experimental: On day 0, gerbils are treated with the test compound at a given dose by spray application. On day +1, the animals are infested with a mixed adult population of cat fleas. Evaluation of efficacy is performed 24 h and 48 h infestation by counting the numbers of live fleas recovered from the gerbils. Efficacy is expressed as comparison with a placebo treated group using the Abbot's formula.

[3] = system: Ctenocephalides felis (cat flea); assay: Activity in vivo against Ctenocephalides felis (cat flea) on Mongolian gerbils (per oral application); details: dose 3.2 mg/kg, oral gavage, live fleas counted 48 h after infestation, vs placebo (Abbot's formula)
Experimental: On day 0, gerbils are treated orally by gavage with the test compound formulated at a given dose. Immediately after treatment, they are infested with a mixed adult population of cat fleas. Evaluation of efficacy is performed 48 h infestation by counting the numbers of live fleas recovered from the gerbils. Efficacy is expressed as comparison with a placebo treated group using the Abbot's formula.

Structure (SMILES)	Efficacy in killing % ([1]; dose 100 mg/kg)	Efficacy in killing % ([2]; dose 32 mg/kg)	melting point	Efficacy in killing % [3]	Efficacy in killing % ([1]; dose 10 mg/kg)	Efficacy in killing % ([2]; dose 10 mg/kg)
Cc1sc(C2=NOC(c3cc(Cl)cc(Cl)c3)(C(F)(F)F)C2)cc1C(=O)NCC(=O)NCC#N (stereo not drawn) [Compound 1.32, N-(2-((cyanomethyl)amino)-2-oxoethyl)-5-(5-(3,5-dichlorophenyl)-5-(trifluoromethyl)-4,5-dihydroisoxazol-3-yl)-2-methylthiophene-3-carboxamide]	85%	96%				
Cc1oc(C2=NOC(c3cc(Cl)cc(Cl)c3)(C(F)(F)F)C2)cc1C(=O)NCC(=O)NCC(F)(F)F (stereo not drawn) [Compound 1.19, 5-(5-(3,5-dichlorophenyl)-5-(trifluoromethyl)-4,5-dihydroisoxazol-3-yl)-2-methyl-N-(2-oxo-2-((2,2,2-trifluoroethyl)amino)ethyl)furan-3-carboxamide]			172 to 174 °C	99%	100%	94%
